According to patent US11999727B2 (Tango Therapeutics, Inc., priority 2020, dated 2024):

Experiments:
PRMT5 [1] = molecular target: T1, PRMT5 (Homo sapiens, UniProt O14744); experiment: PRMT5 biochemical IC50 assay with SAM as cofactor; conditions: PRMT5, SAM as cofactor; read-out: SAM IC50
T1 construct: purchased Viva (custom protein)

PRMT5 [2] = molecular target: T1, PRMT5; experiment: PRMT5 biochemical IC50 assay with no cofactor; conditions: PRMT5, no cofactor; read-out: No Cofactor/rel IC50
Description: Table 1 indicates IC50 values (μM) against PRMT5 for exemplary compounds in the presence of SAM as cofactor, with no cofactor, and with MTA as cofactor, respectively (columns 4-6). […] Ki values can be calculated from the IC50 values as described in the Examples section. As detailed in the Examples section, for the assay performed in the presence of SAM, IC50=Ki×1.5 (Ki=IC50/1.5).

PRMT5 [3] = molecular target: T1, PRMT5; experiment: PRMT5 biochemical IC50 assay with MTA as cofactor; conditions: PRMT5, MTA as cofactor; read-out: MTA IC50
[4] = test system: HAP1 MTAP-intact cell line; experiment: SDMA in-cell western assay, HAP1 MTAP-intact; assay type: cell-based; conditions: Homo sapiens, HAP1, SDMA in-cell western, HAP1 MTAP-intact; read-out: MTAP HAP1 intact IC50
Outline: (§1)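 MTAP-null vs endogenous-MTAP HAP1 isogenic cells; in-cell western SDMA readout; IC50 per line.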

[5] = test system: HAP1 MTAP-deleted cell line; experiment: SDMA in-cell western assay, HAP1 MTAP-deleted; assay type: cell-based; conditions: for IC50: Homo sapiens, HAP1, SDMA in-cell western, HAP1 MTAP-deleted, read-out: HAP1 MTAP deleted IC50; for MTAP intact/deleted ratio: IC50 ratio HAP1 MTAP-intact vs HAP1 MTAP-deleted, SDMA in-cell western
Outline: as §1

[6] = test system: HAP1 MTAP-deleted cell line; experiment: Viability assay, MTAP-deleted cell line; assay type: cell-based; conditions: Homo sapiens, HAP1, viability assay, MTAP-deleted cell line; read-out: HAP1 MTAP deleted viability
Description: Table 1 additionally indicates IC50 values in a viability assay for the MTAP-deleted cell line (column 10), indicating the effect of treatment with compound on cell survival.

T1 sequence (O14744 whole entry): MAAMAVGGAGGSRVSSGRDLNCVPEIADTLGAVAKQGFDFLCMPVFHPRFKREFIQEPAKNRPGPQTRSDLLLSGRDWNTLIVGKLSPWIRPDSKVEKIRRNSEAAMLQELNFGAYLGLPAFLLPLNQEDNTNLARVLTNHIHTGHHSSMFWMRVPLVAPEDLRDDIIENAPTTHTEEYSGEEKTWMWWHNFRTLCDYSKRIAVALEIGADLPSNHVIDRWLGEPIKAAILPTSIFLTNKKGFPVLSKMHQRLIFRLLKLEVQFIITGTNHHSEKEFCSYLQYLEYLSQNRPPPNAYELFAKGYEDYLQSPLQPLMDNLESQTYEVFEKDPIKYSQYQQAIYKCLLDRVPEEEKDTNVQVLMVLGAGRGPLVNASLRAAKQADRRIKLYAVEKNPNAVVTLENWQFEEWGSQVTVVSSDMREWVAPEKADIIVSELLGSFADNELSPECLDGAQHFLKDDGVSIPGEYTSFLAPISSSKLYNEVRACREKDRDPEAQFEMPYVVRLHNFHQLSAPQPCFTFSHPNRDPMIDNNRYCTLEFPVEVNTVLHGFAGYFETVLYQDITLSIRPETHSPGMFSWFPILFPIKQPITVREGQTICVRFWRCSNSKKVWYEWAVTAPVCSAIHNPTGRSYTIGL
T1 sequence (Q9BQA1 whole entry partner): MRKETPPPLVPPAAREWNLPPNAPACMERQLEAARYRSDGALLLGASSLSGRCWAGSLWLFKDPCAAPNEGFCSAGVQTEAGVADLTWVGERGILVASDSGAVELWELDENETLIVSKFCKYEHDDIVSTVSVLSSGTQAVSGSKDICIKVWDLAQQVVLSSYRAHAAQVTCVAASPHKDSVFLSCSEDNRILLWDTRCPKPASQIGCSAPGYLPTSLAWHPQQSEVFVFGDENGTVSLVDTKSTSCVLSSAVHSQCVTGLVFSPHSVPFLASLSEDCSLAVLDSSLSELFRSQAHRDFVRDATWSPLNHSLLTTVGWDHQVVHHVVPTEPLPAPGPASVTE

| Compound | IC50 (PRMT5 [1]) | IC50 (PRMT5 [2]) | IC50 (PRMT5 [3]) | IC50 [4] | IC50 [5] | MTAP intact/deleted ratio [5] | IC50 [6] |
| --- | --- | --- | --- | --- | --- | --- | --- |
| COc1cc(NC(=O)C(=O)N2C[C@@H](C)CC[C@@H]2c2ccc3sc(C4CCN(C)CC4)nc3c2)cnc1N [Compound 1203, N-(6-amino-5-methoxypyridin-3-yl)-2-((2R,5)-5-methyl-2-(2-(1-methylpiperidin-4-yl)benzo[d]thiazol-5-yl)piperidin-1-yl)-2-oxoacetamide] | < 50 nM | < 50 nM | < 50 nM | < 100 nM | < 100 nM | A (an IC50 ratio greater than or equal to 10 fold) | < 1000 nM |
| CCc1cc(NC(=O)C(=O)N2C[C@@H](C)CC[C@@H]2c2ccc3sc(C45CC(CN(C)C4)C5)nc3c2)cnc1N [Compound 1212, N-(6-amino-5-ethylpyridin-3-yl)-2-((2R,5S)-5-methyl-2-(2-(3-methyl-3-azabicyclo[3.1.1]heptan-1-yl)benzo[d]thiazol-5-yl)piperidin-1-yl)-2-oxoacetamide] | < 50 nM | < 50 nM | < 50 nM | < 100 nM | < 100 nM | B (an IC50 ratio greater than or equal to 3 fold but lower than 10 fold) | < 1000 nM |
| CCc1cc(NC(=O)C(=O)N2C[C@@H](C)CC[C@@H]2c2ccc3sc(C45CCC(CC4)N(C)C5)nc3c2)cnc1N [Compound 1217] | < 50 nM | < 50 nM | < 50 nM | < 100 nM | < 100 nM | B (an IC50 ratio greater than or equal to 3 fold but lower than 10 fold) | < 1000 nM |

Further lines, with some results ahead:

| IC50 (PRMT5 [1]) | IC50 (PRMT5 [2]) | IC50 (PRMT5 [3]) | IC50 [4] | IC50 [5] | Compound | MTAP intact/deleted ratio [5] | IC50 [6] |
| --- | --- | --- | --- | --- | --- | --- | --- |
| 50 to 500 nM | < 50 nM | < 50 nM | 100 to 1000 nM | < 100 nM | CCc1cc(NC(=O)C(=O)N2C[C@@H](C)CC[C@@H]2c2ccc(OCC3CCN(C)CC3)cc2)cnc1N [Compound 1206] | A (an IC50 ratio greater than or equal to 10 fold) | < 1000 nM |
| 50 to 500 nM | < 50 nM | < 50 nM | 100 to 1000 nM | < 100 nM | Cc1cc(NC(=O)C(=O)N2C[C@@H](C)CC[C@@H]2c2ccc3sc(-c4cn(C)cn4)nc3c2)cnc1N [Compound 1214, N-(6-amino-5-methylpyridin-3-yl)-2-((2R,5S)-5-methyl-2-(2-(1-methyl-1H-imidazol-4-yl)benzo[d]thiazol-5-yl)piperidin-1-yl)-2-oxoacetamide] | A (an IC50 ratio greater than or equal to 10 fold) | < 1000 nM |
| < 50 nM | < 50 nM | < 50 nM | 100 to 1000 nM | < 100 nM | Cc1cc(NC(=O)C(=O)N2C[C@@H](C)CC[C@@H]2c2ccc3sc([C@@H]4CCN(C)C(C)(C)C4)nc3c2)cnc1C [Compound 1215, N-(5,6-dimethyl-3-pyridyl)-2-oxo-2-[(2R,5S)-5-methyl-2-[2-[(4R)-1,2,2-trimethyl-4-piperidyl]-1,3-benzothiazol-5-yl]-1-piperidyl]acetamide] | A (an IC50 ratio greater than or equal to 10 fold) | < 1000 nM |
| 50 to 500 nM | < 50 nM | < 50 nM | < 100 nM | < 100 nM | COc1ncc(NC(=O)C(=O)N2C[C@@H](C)CC[C@@H]2c2ccc3sc(C4CCN(C5CC5)CC4)nc3c2)cc1C(N)=O [Compound 1219, 5-(2-((2R,5S)-2-(2-(1-cyclopropylpiperidin-4-yl)benzo[d]thiazol-5-yl)-5-methylpiperidin-1-yl)-2-oxoacetamido)-2-methoxynicotinamide] | A (an IC50 ratio greater than or equal to 10 fold) | < 1000 nM |
